24 molecules from US12264134B2 (Merck Sharp & Dohme LLC, priority 2018, dated 2025) can be followed below.

This test has as its target IDO1 (Homo sapiens, UniProt P14902). As to the kind of experiment: IDO1 Cellular Assay in HeLa Cells Stimulated with IFNγ. The class given is cell-based. As to conditions: read-out: HeLa Cell Potency, IC50.

Chain of IDO1 (P14902 whole entry): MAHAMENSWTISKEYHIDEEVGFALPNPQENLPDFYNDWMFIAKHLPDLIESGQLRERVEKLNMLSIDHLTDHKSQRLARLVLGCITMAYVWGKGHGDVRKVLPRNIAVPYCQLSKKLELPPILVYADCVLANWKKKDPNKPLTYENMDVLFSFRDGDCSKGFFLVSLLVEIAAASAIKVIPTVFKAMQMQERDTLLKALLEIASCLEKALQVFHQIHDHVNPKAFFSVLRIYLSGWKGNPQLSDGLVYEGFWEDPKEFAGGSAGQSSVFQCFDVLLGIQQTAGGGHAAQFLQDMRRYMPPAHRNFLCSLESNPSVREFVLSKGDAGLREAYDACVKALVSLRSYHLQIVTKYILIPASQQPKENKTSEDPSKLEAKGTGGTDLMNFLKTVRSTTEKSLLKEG

One may read the IC50 as the concentration that inhibits the measured activity by half. `Cc1c(Cl)cccc1N1CCN(C(=O)Cn2nc(C(=O)N3CCC(OCCO)CC3)c3c2C[C@H]2C[C@@H]32)C2(CC2)C1` [Example 312, 1-(7-(3-chloro-2-methylphenyl)-4,7-diazaspiro[2.5]octan-4-yl)-2-((3bR,4aR)-3-(4-(2-hydroxyethoxy)piperidine-1-carbonyl)-3b,4,4a,5-tetrahydro-1H-cyclopropa[3,4]cyclopenta[1,2-c]pyrazol-1-yl)ethan-1-one]: the IC50 was found to be 1.74 nM. With `Cc1cccc(N2CCN(C(=O)Cn3nc(C(=O)N4CCC(N5CCC5)CC4)c4c3C[C@H]3C[C@@H]43)CC2)c1C` [Example 258, 2-{(3bR,4aR)-3-[4-(azetidin-1-yl)piperidine-1-carbonyl]-3b,4,4a,5-tetrahydro-1H-cyclopropa[3,4]cyclopenta[1,2-c]pyrazol-1-yl}-1-[4-(2,3-dimethylphenyl)piperazin-1-yl]ethan-1-one], the IC50 was 2.95 nM. For `C[C@@H]1CN(C(=O)c2nn(CC(=O)N3CCN(c4cccc(F)c4F)CC3)c3c2CCC3)C[C@H](C)O1` [Example 35, 1-[4-(2,3-difluorophenyl)piperazin-1-yl]-2-{3-[(2R,6S)-2,6-dimethylmorpholine-4-carbonyl]-5,6-dihydrocyclopenta[c]pyrazol-1(4H)-yl}ethan-1-one], the IC50 is 487 nM. The figure for `Cc1cccc(N2CCN(C(=O)Cn3nc(C(=O)N4CCC(O)C(F)(F)C4)c4c3CCC4)CC2)c1C` (stereo not drawn) [Example 205, 2-[3-(3,3-difluoro-4-hydroxy-piperidine-1-carbonyl)-5,6-dihydro-4H-cyclopenta[c]pyrazol-1-yl]-1-[4-(2,3-dimethylphenyl)piperazin-1-yl]ethanone] is 17.1 nM.

In the case of `CC(=O)NC1CCN(C(=O)c2nn(CC(=O)N3CCN(c4cccc(C)c4C)CC34CC4)c3c2[C@@H]2C[C@@H]2C3)CC1` [Example 356, N-(1-((3bR,4aR)-1-(2-(7-(2,3-dimethylphenyl)-4,7-diazaspiro[2.5]octan-4-yl)-2-oxoethyl)-3b,4,4a,5-tetrahydro-1H-cyclopropa[3,4]cyclopenta[1,2-c]pyrazole-3-carbonyl)piperidin-4-yl)acetamide], the IC50 worked out at 0.73 nM. Turning to `Cc1cccc(N2CCN(C(=O)Cn3nc(C(=O)N4CCC(c5cc[nH]n5)CC4)c4c3CCC4)CC2)c1C` [Example 145, 1-[4-(2,3-dimethylphenyl)piperazin-1-yl]-2-{3-[4-(1H-pyrazol-3-yl)piperidine-1-carbonyl]-5,6-dihydrocyclopenta[c]pyrazol-1(4H)-yl}ethan-1-one], the IC50 amounted to 1.77 nM. Consider `Cc1cccc(N2CCN(C(=O)Cn3nc(C(=O)N4CCC(C)(CO)CC4)c4c3C[C@H]3C[C@@H]43)CC2)c1C` [Example 248, 1-[4-(2,3-dimethylphenyl)piperazin-1-yl]-2-{(3aR,4aR)-3-[4-(hydroxymethyl)-4-methylpiperidine-1-carbonyl]-3b,4,4a,5-tetrahydro-1H-cyclopropa[3,4]cyclopenta[1,2-c]pyrazol-1-yl}ethan-1-one], for which the IC50 is 0.7 nM. Under `Cc1cc(F)ccc1N1CCN(C(=O)Cn2nc(C(=O)N3C[C@@H](C)O[C@@H](C)C3)c3c2CCC3)CC1` [Example 46, 2-{3-[(2R,6S)-2,6-dimethylmorpholine-4-carbonyl]-5,6-dihydrocyclopenta[c]pyrazol-1(4H)-yl}-1-[4-(4-fluoro-2-methylphenyl)piperazin-1-yl]ethan-1-one] stands 45.2 nM; under `CC(=O)N(C)C1CCN(C(=O)c2nn(CC(=O)N3CCN(c4cccc(C)c4C)CC3)c3c2[C@@H]2C[C@@H]2C3)CC1` [Example 256, N-{1-[(3bR,4aR)-1-{2-[4-(2,3-dimethylphenyl)piperazin-1-yl]-2-oxoethyl}-3b,4,4a,5-tetrahydro-1H-cyclopropa[3,4]cyclopenta[1,2-c]pyrazole-3-carbonyl]piperidin-4-yl}-N-methylacetamide], 0.83 nM; under `C[C@@H]1CN(C(=O)c2nn(CC(=O)N3CCN(c4ccc(Cl)cc4)CC3)c3c2CCC3)C[C@H](C)O1` [Example 42, 1-[4-(4-chlorophenyl)piperazin-1-yl]-2-{3-[(2R,6S)-2,6-dimethylmorpholine-4-carbonyl]-5,6-dihydrocyclopenta[c]pyrazol-1(4H)-yl}ethan-1-one], 147 nM. The figure for `Cc1cccc(N2CCN(C(=O)Cn3nc(C(=O)N4CCC(O)CC4(C)C)c4c3CCCC4)CC2)c1C` (stereo not drawn) [Example 461, 1-(4-(2,3-dimethylphenyl)piperazin-piperazin-1-yl)-2-(3-(4-hydroxy-2,2-dimethylpiperidine-1-carbonyl)-4,5,6,7-tetrahydro-1H-indazol-1-yl)ethanone] is 1.25 nM; for `Cc1cccc(N2CCN(C(=O)Cn3nc(C(=O)N4CC5C(CO)C5C4)c4c3CCC4)CC2)c1C` (stereo not drawn) [Example 131, 1-[4-(2,3-dimethylphenyl)piperazin-1-yl]-2-{3-[6-(hydroxymethyl)-3-azabicyclo[3.1.0]hexane-3-carbonyl]-5,6-dihydrocyclopenta[c]pyrazol-1(4H)-yl}ethan-1-one] it is 23.2 nM; for `CC(=O)NC1CCN(C(=O)c2nn(CC(=O)N3CCN(c4cccc(Cl)c4C)CC3)c3c2CC(F)CC3)CC1` (stereo not drawn) [Example 367, N-(1-(1-(2-(4-(3-chloro-2-methylphenyl)piperazin-1-yl)-2-oxoethyl)-5-fluoro-4,5,6,7-tetrahydro-1H-indazole-3-carbonyl)piperidin-4-yl)acetamide] it is 2.89 nM. With `Cc1cccc(N2CCN(C(=O)Cn3nc(C(=O)N4CC[C@@H](O)[C@@H](F)C4)c4c3CC(F)C4)CC2)c1C` (mixture of isomers) [Example 417, 1-(4-(2,3-dimethylphenyl)piperazin-1-yl)-2-(5-fluoro-3-((3S,4R)-3-fluoro-4-hydroxypiperidine-1-carbonyl)-5,6-dihydrocyclopenta[c]pyrazol-1(4H)-yl)ethan-1-one], the IC50 was 27 nM. Consider `C[C@@H]1CN(C(=O)c2nn(CC(=O)N3CCN(C4CCCc5ccccc54)CC3)c3c2CCC3)C[C@H](C)O1` (stereo partly drawn) [Example 428, 2-(3-((2S,6R)-2,6-dimethylmorpholine-4-carbonyl)-5,6-dihydrocyclopenta[c]pyrazol-1(4H)-yl)-1-(4-(1,2,3,4-tetrahydronaphthalen-1-yl)piperazin-1-yl)ethanone], for which the IC50 is 85.7 nM. Consider `Cc1c(C(F)F)cccc1N1CCN(C(=O)Cn2nc(C(=O)N3CCC(OCCO)CC3)c3c2C[C@H]2C[C@@H]32)CC1` [Example 345, 1-(4-(3-(difluoromethyl)-2-methylphenyl)piperazin-1-yl)-2-((3bR,4aR)-3-(4-(2-hydroxyethoxy)piperidine-1-carbonyl)-3b,4,4a,5-tetrahydro-1H-cyclopropa[3,4]cyclopenta[1,2-c]pyrazol-1-yl)ethanone], for which the IC50 worked out at 1.88 nM.

Turning to `Cc1cc(F)cc(N2CCN(C(=O)Cn3nc(C(=O)N4C[C@@H](C)O[C@@H](C)C4)c4c3CCC4)CC2)c1` [Example 41, 2-{3-[(2R,6S)-2,6-dimethylmorpholine-4-carbonyl]-5,6-dihydrocyclopenta[c]pyrazol-1(4H)-yl}-1-[4-(3-fluoro-5-methylphenyl)piperazin-1-yl]ethan-1-one], the IC50 worked out at 243 nM.

Consider `Cc1cccc(N2CCN(C(=O)Cn3nc(C(=O)N4CC[C@H](N5CCC(O)CC5)[C@H](F)C4)c4c3CC(F)(F)CC4)CC2)c1C` (stereo in doubt) [Example 23, 2-[6,6-difluoro-3-[rac-(3R,4S)-3-fluoro-4-(4-hydroxy-1-piperidyl)piperidine-1-carbonyl]-5,7-dihydro-4H-indazol-1-yl]-1-[4-(2,3-dimethylphenyl)piperazin-1-yl]ethanone], for which the IC50 amounted to 77.5 nM. Turning to `Cc1c(N2CCN(C(=O)Cn3nc(C(=O)N4C[C@@H](C)O[C@@H](C)C4)c4c3CCC4)CC2)ccc(F)c1F` [Example 49, 1-[4-(3,4-difluoro-2-methylphenyl)piperazin-1-yl]-2-{3-[(2R,6S)-2,6-dimethylmorpholine-4-carbonyl]-5,6-dihydrocyclopenta[c]pyrazol-1(4H)-yl}ethan-1-one], the IC50 stood at 13.5 nM. Consider `Cc1cccc(N2CCN(C(=O)Cn3nc(C(=O)N4CC[C@@H](O)[C@@H](F)C4)c4c3C[C@@H]3C[C@H]43)CC2)c1C` [Example 298, 1-[4-(2,3-dimethylphenyl)piperazin-1-yl]-2-{(3bS,4aS)-3-[(3S,4R)-3-fluoro-4-hydroxypiperidine-1-carbonyl]-3b,4,4a,5-tetrahydro-1H-cyclopropa[3,4]cyclopenta[1,2-c]pyrazol-1-yl}ethan-1-one], for which the IC50 worked out at 14.3 nM. Turning to `C[C@@H]1CN(C(=O)c2nn(CC(=O)N3CCN(c4cccc5c4CCC5)CC3)c3c2CCC3)C[C@H](C)O1` [Example 80, 1-[4-(2,3-dihydro-1H-inden-4-yl)piperazin-1-yl]-2-{3-[(2R,6S)-2,6-dimethylmorpholine-4-carbonyl]-5,6-dihydrocyclopenta[c]pyrazol-1(4H)-yl}ethan-1-one], the IC50 was 6.68 nM. For the molecule `Cc1cccc(N2CCN(C(=O)Cn3nc(C(=O)N4CC[C@H](O)[C@@H](F)C4)c4c3CC(O)C4)CC2)c1C` (mixture of isomers) [Example 414, 1-(4-(2,3-dimethylphenyl)piperazin-1-yl)-2-(3-((3 S,4S)-3-fluoro-4-hydroxypiperidine-1-carbonyl)-5-hydroxy-5,6-dihydrocyclopenta[c]pyrazol-1 (4H)-yl)ethanone], the IC50 came to 381 nM. As to `Cc1cccc(N2CCN(C(=O)Cn3nc(C(=O)N4CCN(CC(F)(F)F)CC4)c4c3C[C@H]3C[C@@H]43)CC2)c1C` [Example 250, 1-[4-(2,3-dimethylphenyl)piperazin-1-yl]-2-{(3bR,4aR)-3-[4-(2,2,2-trifluoroethyl)piperazine-1-carbonyl]-3b,4,4a,5-tetrahydro-1H-cyclopropa[3,4]cyclopenta[1,2-c]pyrazol-1-yl}ethan-1-one], the IC50 turned out to be 0.94 nM.

For the molecule `C[C@@H]1CN(C(=O)c2nn(CC(=O)N3CCN(c4cc(F)c(F)cc4Cl)CC3)c3c2CCC3)C[C@H](C)O1` [Example 44, 1-[4-(2-chloro-4,5-difluorophenyl)piperazin-1-yl]-2-{3-[(2R,6S)-2,6-dimethylmorpholine-4-carbonyl]-5,6-dihydrocyclopenta[c]pyrazol-1(4H)-yl}ethan-1-one], the IC50 was 260 nM.
